#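 Five concentrations, 48 hours, 96-well plates. The concentration for 50% growth inhibition is given as GI50. The concentration for full growth arrest is given as TGI.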
# Experiments:
# Assay in all cases: NCI tumour cell line growth inhibition, 48 h
# [1] = test system: MALME-3M melanoma
# [2] = test system: SF-268 CNS
# [3] = test system: LOX IMVI melanoma
# [4] = test system: HCT-116 colon
# [5] = test system: NCI-H460 lung
# [6] = test system: UO-31 renal
# [7] = test system: HT29 colon
# [8] = test system: 786-0 renal
# [9] = test system: HCC-2998 colon
# [10] = test system: UACC-62 melanoma
Structure (SMILES),GI50 [1],TGI [1],GI50 [2],TGI [2],GI50 [3],TGI [3],GI50 [4],TGI [4],GI50 [5],TGI [5],GI50 [6],TGI [6],GI50 [7],TGI [7],GI50 [8],TGI [8],GI50 [9],TGI [9],GI50 [10],TGI [10]
C=CC(=O)Nc1cc(Nc2ncc(C(=O)OC(C)C)c(-c3cn(C)c4ccccc34)n2)c(OC)cc1N(C)CCN(C)C,1.69 µM,3.24 µM,6.88 µM,24.1 µM,1.76 µM,3.53 µM,3.46 µM,20 µM,6.57 µM,14.8 µM,0.442 µM,12.9 µM,2.32 µM,5.99 µM,3.15 µM,12.9 µM,2.3 µM,7.75 µM,2.34 µM,7 µM
Cc1ccc(S(=O)(=O)OC[C@@H]2CO2)cc1,,> 100 µM,,,,> 100 µM,,> 100 µM,,> 100 µM,,> 100 µM,,> 100 µM,,> 100 µM,,> 100 µM,,
NC1=NCCC1(c1ccccc1)c1ccccn1 (stereo not given),,> 100 µM,,> 100 µM,,,,> 100 µM,,> 100 µM,,,,> 100 µM,,> 100 µM,,> 100 µM,,> 100 µM
COC(=O)c1ccccc1NC(=O)C(=O)Cc1nc2c3c(ccc2[nH]c1=O)C(=O)c1ccccc1C3=O,,31 µM,,67.9 µM,,44.6 µM,,34.7 µM,,> 100 µM,,> 100 µM,,> 100 µM,,74.2 µM,,43 µM,,20.4 µM
COc1cc2ccnc([C@@H](OC(=O)c3ccccc3)c3ccc(OC)c(OC)c3OC)c2cc1OC,,99.8 µM,,> 100 µM,,> 100 µM,,> 100 µM,,> 100 µM,,76.3 µM,,> 100 µM,,> 100 µM,,> 100 µM,,> 100 µM
O=C(CCc1nc(=S)[nH][nH]1)Nc1ccc(Cl)c(Cl)c1,,> 100 µM,,> 100 µM,,,,> 100 µM,,> 100 µM,,> 100 µM,,> 100 µM,,> 100 µM,,,,22 µM
Nc1nc(-n2c(-c3ccccc3)nc3c(Br)cc(Br)cc3c2=O)nnc1-c1cccc(Cl)c1Cl,,,20.3 µM,> 100 µM,4.06 µM,37.2 µM,2.43 µM,7.06 µM,6.92 µM,> 100 µM,40.2 µM,> 100 µM,4.82 µM,> 100 µM,11.2 µM,60.7 µM,3.42 µM,15.5 µM,7.08 µM,25.4 µM
O=C(CCNC12CC3CC(CC(C3)C1)C2)c1ccccc1,,32.1 µM,,> 100 µM,,,,29.4 µM,,69.6 µM,,77.6 µM,,23.6 µM,,31.6 µM,,26.5 µM,,39.6 µM
Cc1nc2c(ccc3ncccc32)[nH]1,,> 100 µM,,> 100 µM,,> 100 µM,,,,> 100 µM,,> 100 µM,,> 100 µM,,> 100 µM,,> 100 µM,,> 100 µM
